The values below come from publication PMC4910235, “Selenophene and thiophene-core estrogen receptor ligands that inhibit motility and development of parasitic stages of Haemonchus contortus” (Parasites & Vectors, 2016).

Data set [1] deals with exsheathed third-stage larvae (xL3s) of H. contortus. In words: xL3 motility assay (whole-organism screen and dose-response). The format is cell-based, Haemonchus contortus. The following applies: for activity at 20 µM: Haemonchus contortus, 72 h, percent of motility compared with controls, mean of triplicate ± SEM. As for the experimental part:
The selenophene and thiophene-core ligands (n = 74) (Additional file 1) were screened at a concentration of 20 μM on exsheathed third-stage larvae (xL3s) of H. contortus in 96-well microculture plates (cat. no. 3635; Corning 3650, Life Sciences, Corning, USA) using relevant control compounds (i.e. moxidectin and monepantel), as described previously. In brief, compounds were dissolved to a stock concentration of 10 mM in either dimethyl sulfoxide (DMSO) or methanol (Sigma-Adrich Scientific, St. Louis, USA). These ligands were then individually diluted to the final concentration of 20 μM using Luria Bertani medium (LB) supplemented with 100 IU/ml of penicillin, 100 μg/ml of streptomycin and 2.5 μg/ml of amphotericin (LB*). Compounds were dispensed (in triplicate) into the wells of a 96-well microculture plate using a multichannel pipette. In addition, the negative controls (LB*, LB* + 0.5 % solvent; six wells each), and positive controls (20 μM of monepantel; Zolvix, Novartis Animal Health, Basel, Switzerland and 20 μM of moxidectin; Cydectin, Virbac, Carros, France; triplicate wells) and xL3s (~300/well) were dispensed into wells of the plate using an automated multichannel pipette (Viaflo Assist/II, Integra Biosciences, Zizers, Switzerland). […], a video recording (5 s) was taken of each well of the 96-well microculture plate (containing xL3s) using a greyscale camera (Rolera Bolt CMOS, Qimaging Scientific, Surrey, Canada) and a motorised X-Y axis stage (BioPoint 2, Ludl Electronics Products, Hawthorne, USA). Individual videos were processed to calculate a motility index (MI) using an algorithm described previously. MIs were normalised to the negative and positive controls (to remove plate-to-plate variation) using the program Prism (v.6 GraphPad Software, USA). Z’-scores were calculated to validate the performance of the screening assay; reliable assays achieve Z’-scores of between 0.5 and 1 [28]. A compound was recorded as having an activity if it reduced xL3 motility by ≥ 70 % following incubation for 72 h. […] Compounds that reduced the motility of xL3s were also tested for their ability to inhibit the motility of L4s (same protocol as for xL3s) and/or to affect the development of xL3s to L4s. Following the measurement of L4 motility, larvae were re-incubated for 4 more days and fixed with 1 % iodine (50 μl). Then, L4 development was assessed based on the presence of a well-developed mouth/pharynx using a light microscope and expressed as a percentage of the total number of larvae examined (n = 30).
All assays (to assess xL3 motility, L4 development and L4 motility) were performed in triplicate, three times, on separate days.

The mark [2] stands for this setting: 20 μM, read-out: xL3 Motility Index(%).
Setting [3] is: read-out: xL3 Motility Index(%), 20 μM, 72 h.

Molecules are shown by their SMILES. Where two headings read alike, the source gives them in different places.

What is called melting point is the temperature, or range, at which the solid turns liquid.

For the compound `COc1ccc(-c2cscc2-c2ccc(OC)cc2Cl)c(Cl)c1` [MJ-4], the melting point was in the range of 121 to 125 °C. Further, in data set [1] (20 μM), the “activity on xL3 motility, in words” value is “Poor activity”. For the same compound, the activity at 20 µM in data set [1] (setting [2]) is 81.6 ± 15.7%.
Consider `Oc1ccc(-c2cc(Br)c(-c3ccc(O)c(Cl)c3)[se]2)cc1Cl` [WZY-4], for which the “activity on xL3 motility, in words” value in data set [1] (20 μM) is given as ““lost” activity”. Besides, the activity at 20 µM in data set [1] (setting [3]) is 123 ± 7.8%.
As for `Oc1ccc(-c2ccc(-c3ccc(O)cc3Cl)s2)c(Cl)c1` [MJ-29], the activity at 20 µM in data set [1] (setting [2]) worked out at 66.6 ± 2.7%.
Regarding `Oc1ccc(-c2ccc(-c3ccc(O)cc3F)[se]2)c(F)c1` [WZY-3], the activity at 20 µM in data set [1] (setting [3]) was determined as 100 ± 7.7%.
`Oc1ccc(-c2ccsc2-c2ccc(O)cc2Cl)c(Cl)c1` [MJ-32]: the “activity on xL3 motility, in words” value in data set [1] (20 μM) was “lost all activity”. Besides, the activity at 20 µM in data set [1] (setting [2]) came to 102 ± 3.6%.
On to `COc1c(C)cc(-c2cc(Br)c(-c3cc(C)c(OC)c(C)c3)[se]2)cc1C` [WZY-5], for which, in data set [1] (20 μM), the “activity on xL3 motility, in words” value is reported as ““lost” activity”. Further, the activity at 20 µM in data set [1] (setting [3]) turned out to be 105 ± 18.6%.
For `Oc1ccc(-c2cscc2-c2ccc(O)cc2)cc1` [MJ-35], the “activity on xL3 motility, in words” value in data set [1] (20 μM) is given as “complete loss of activity”. Besides, the activity at 20 µM in data set [1] (setting [2]) is 102 ± 1.5%.
`COc1ccc(-c2ccc(-c3ccc(OC)cc3Cl)[se]2)c(Cl)c1` [WZY-1]: in data set [1] (20 μM), the “activity on xL3 motility, in words” value is recorded as “limited reduction in motility”. For the same compound, in data set [1] (setting [3]), the activity at 20 µM was 77.9 ± 6.6%.
For the compound `Cc1cc(-c2cscc2-c2ccc(O)c(C)c2)ccc1O` [MJ-33], in data set [1] (20 μM), the “activity on xL3 motility, in words” value is given as “poor activity”. Further, the activity at 20 µM in data set [1] (setting [2]) was 85.5 ± 10.6%.
